These results are taken from ChEMBL document CHEMBL3046910, “Synthesis and pharmacological evaluation of antioxidant chalcone derivatives of 2(3H)-benzoxazolones” (Med Chem Res, 2009).

Holding throughout (type): functional
The nature of assay [1]: Antioxidant activity assessed as inhibition of copper-mediated LDL oxidation by FPLC method relative to probucol.
A short description of assay [2]: Antioxidant activity assessed as inhibition of copper-mediated LDL oxidation at 3 x 10 '-6 M by FPLC method. The note with it: TDE = time-dependent effect.
Assay [3] can be described thus: Antioxidant activity against copper-mediated LDL oxidation assessed as oxidized LDL type D level at 3 x 10 '-6 M by FPLC method.
Assay [4] in a line: Antioxidant activity against copper-mediated LDL oxidation assessed as oxidized LDL type C level at 3 x 10 '-6 M by FPLC method.
For assay [5], the system named is Oryctolagus cuniculus. The experiment in a line: Antioxidant activity against copper-induced LDL oxidation in Watanabe Oryctolagus cuniculus (rabbit) assessed as time duration of protection at 50 mg/kg, po administered as single dose.
Assay [6] can be described thus: Antioxidant activity against copper-mediated LDL oxidation assessed as native LDL type B level at 3 x 10 '-6 M by FPLC method.
Assay [7] is described as follows: Antioxidant activity assessed as inhibition of copper-mediated LDL oxidation by FPLC method.
The nature of assay [8]: Antioxidant activity against copper-mediated LDL oxidation assessed as oxidized LDL type E level at 3 x 10 '-5 M by FPLC method.
The subject of assay [9] is Oryctolagus cuniculus. The experiment in a line: Antioxidant activity against copper-induced LDL oxidation in Watanabe Oryctolagus cuniculus (rabbit) assessed as time duration of protection at 250 mg/kg, po administered as single dose.
The nature of assay [10]: Antioxidant activity against copper-mediated LDL oxidation assessed as oxidized LDL type D level at 3 x 10 '-5 M by FPLC method.

As a reminder, the IC50 is the midpoint of a concentration-inhibition curve. Consider `CC1/C(=C\c2cc(C(C)(C)C)c(O)c(C(C)(C)C)c2)C(=O)c2cc3oc(=O)n(C)c3cc21` (configuration not stated), for which the Ratio in assay [1] was found to be 10. In addition, the Activity entry in assay [2] was “tde”; in assay [3] it was 8%; in assay [4] it was 8%; in assay [6] it was 84%; in assay [7], “Dose-dependent effect”. For the same compound, the Time in the assay on Oryctolagus cuniculus [5] came out at 48 h. In addition, the IC50 in assay [7] amounted to 3 µM.
As to `CC(C)(Sc1cc(C(C)(C)C)c(O)c(C(C)(C)C)c1)Sc1cc(C(C)(C)C)c(O)c(C(C)(C)C)c1` [PROBUCOL], the Activity in assay [8] worked out at 52%; in assay [10], 48%. Further, the Time in the assay on Oryctolagus cuniculus [9] is 48 h. Moreover, in [7], the IC50 amounted to 30 µM.
